Consider 62 compounds from ChEMBL document CHEMBL1131435, “Biphenylsulfonamide endothelin antagonists: structure-activity relationships of a series of mono- and disubstituted analogues and pharmacology of the orally active endothelin antagonist 2'-amino-N- (3,4-dimethyl-5-isoxazolyl)-4'-(2-methylpropyl)[1, 1'-biphenyl]-2-sulfonamide (BMS-187308)” (J Med Chem, 1998).

The target in assay [1] is T1, Endothelin-1 receptor (Rattus norvegicus, UniProt P26684).
T1 sequence (P26684 whole entry): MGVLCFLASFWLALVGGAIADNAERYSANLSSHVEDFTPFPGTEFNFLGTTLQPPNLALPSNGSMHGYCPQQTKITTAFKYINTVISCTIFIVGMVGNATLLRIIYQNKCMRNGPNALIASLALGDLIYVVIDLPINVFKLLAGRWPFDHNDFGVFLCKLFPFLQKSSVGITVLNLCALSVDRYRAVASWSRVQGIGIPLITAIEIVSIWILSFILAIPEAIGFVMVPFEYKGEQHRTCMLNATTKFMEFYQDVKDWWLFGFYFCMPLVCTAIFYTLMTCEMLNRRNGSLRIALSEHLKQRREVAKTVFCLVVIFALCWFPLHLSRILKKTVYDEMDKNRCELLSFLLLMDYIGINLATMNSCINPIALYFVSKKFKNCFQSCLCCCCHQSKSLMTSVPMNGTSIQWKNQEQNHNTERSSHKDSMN
Nature of the assay: Ability to inhibit binding of [125I]ET1 to membranes prepared from A10 rat thoracic aorta smooth muscle Endothelin A receptor. It is filed as tissue-based.

The target in assay [2] is T2, Endothelin receptor type B (Rattus norvegicus, UniProt P21451).
T2 sequence (P21451 whole entry): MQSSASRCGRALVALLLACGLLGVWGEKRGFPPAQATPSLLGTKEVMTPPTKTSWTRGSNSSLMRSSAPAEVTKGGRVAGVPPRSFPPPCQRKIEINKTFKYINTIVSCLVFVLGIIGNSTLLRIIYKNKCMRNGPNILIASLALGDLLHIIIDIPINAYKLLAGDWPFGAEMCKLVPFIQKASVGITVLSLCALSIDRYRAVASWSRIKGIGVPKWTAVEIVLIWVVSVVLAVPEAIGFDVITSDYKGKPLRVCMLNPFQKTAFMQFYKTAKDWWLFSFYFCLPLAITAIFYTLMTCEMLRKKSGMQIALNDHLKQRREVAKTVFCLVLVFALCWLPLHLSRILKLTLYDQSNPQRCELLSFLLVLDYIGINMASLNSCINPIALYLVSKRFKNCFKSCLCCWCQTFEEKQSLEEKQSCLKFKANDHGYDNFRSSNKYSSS
Nature of the assay: Ability to inhibit binding of [125I]-ET-1 to membranes prepared from […] rat cerebellum (Endothelin B receptor). It is filed as tissue-based.

Where a SMILES comes first, the peptide text is derived from it. A value given as a limit tells only on which side of the number the result lay.

On to `Cc1noc(NS(=O)(=O)c2ccccc2-c2ccc(CC(C)C)cc2)c1Cc1ccccc1`, for which the Ki (as a rule, a dissociation constant, usually derived from enzyme kinetics or from competition with a known ligand) in assay [1] is 6.4 µM; in assay [2], more than 200 µM.
Consider `Cc1noc(NS(=O)(=O)c2cc(OCc3ccccc3)ccc2-c2ccc(CC(C)C)cc2)c1C`, for which the inhibition constant Ki in assay [1] was more than 20 µM; in assay [2], more than 200 µM.
As to `Cc1[n-][o+]c(NS(=O)(=O)c2ccccc2-c2ccc(CC(C)C)cc2)c1[N+](=O)[O-]`, the Ki in assay [2] turned out to be 30 µM.
For the compound `Cc1cnoc1NS(=O)(=O)c1ccccc1-c1ccc(CC(C)C)cc1`, the Ki is 0.97 µM in assay [1] and 100 µM in assay [2].
Regarding `Cc1noc(NS(=O)(=O)c2cccc(O)c2-c2ccc(CC(C)C)cc2)c1C`, the Ki was determined as 0.005 µM in assay [1] and 0.94 µM in assay [2].
With `Cc1noc(NS(=O)(=O)c2ccccc2-c2cccc(N(C)C)c2)c1C`, the results for the inhibitory constant (Ki) in assay [1] and in assay [2] were 0.112 µM and more than 200 µM, respectively.
As to `Cc1noc(NS(=O)(=O)c2ccccc2-c2ccccc2N(C)C)c1C`, the Ki is 0.103 µM in assay [1] and more than 200 µM in assay [2].
As for `Cc1noc(NS(=O)(=O)c2ccccc2-c2ccc(S(=O)(=O)N(C)C)cc2)c1C`, the Ki in assay [1] is 0.56 µM; in assay [2], more than 200 µM.
In the case of `Cc1noc(NS(=O)(=O)c2ccc(NCC(=O)O)cc2-c2ccc(CC(C)C)cc2)c1C`, the Ki amounted to 0.55 µM in assay [1] and 1.9 µM in assay [2].
The like results for `Cc1noc(NS(=O)(=O)c2cccc3c(N(C)C)cccc23)c1C` [BMS-182874] were, in that order, 0.055 µM and more than 200 µM.
In the same order, the values of `Cc1noc(NS(=O)(=O)c2cccc(OCCO)c2-c2ccc(CC(C)C)cc2)c1C` are 0.0027 µM and 2.3 µM.
`Cc1noc(NS(=O)(=O)c2ccccc2-c2ccc(CC(C)C)cc2F)c1C`: the Ki in assay [1] came to 0.02 µM; in assay [2], 12 µM.
On to `Cc1noc(NS(=O)(=O)c2ccccc2-c2ccc(CC(C)C)cc2NC=O)c1C`, for which the Ki in assay [1] is 0.017 µM; in assay [2] it was 6.9 µM.
In the same order, the values of `Cc1noc(NS(=O)(=O)c2ccccc2-c2ccccc2CO)c1C` are 0.04 µM and more than 200 µM.
The like results for `Cc1noc(NS(=O)(=O)c2ccccc2-c2ccc(CC(C)C)cc2)c1C` were, in that order, 0.018 µM and 1.7 µM.
The like results for `COc1ccc(S(=O)(=O)Nc2onc(C)c2C)c(-c2ccc(CC(C)C)cc2)c1` were, in that order, 0.37 µM and 6.2 µM.
Take `CC(=O)Nc1ccc(S(=O)(=O)Nc2onc(C)c2C)c(-c2ccc(CC(C)C)cc2)c1`: in assay [2], the Ki was 9.8 µM.
In the case of `Cc1cc(CC(C)C)ccc1-c1ccccc1S(=O)(=O)Nc1onc(C)c1C`, the figures for the Ki in assay [1] and in assay [2] were 0.005 µM and 19 µM, respectively.
As to `COc1ccc(-c2ccccc2S(=O)(=O)Nc2onc(C)c2C)cc1`, the Ki in assay [1] was found to be 0.033 µM; in assay [2], 250 µM.
For the compound `Cc1noc(NS(=O)(=O)c2cc(O)ccc2-c2ccc(CC(C)C)cc2)c1C`, the Ki was 0.5 µM in assay [1] and 24 µM in assay [2].
`Cc1noc(NS(=O)(=O)c2ccccc2-c2ccc(CC(C)C)cc2O)c1C`: the Ki in assay [1] was determined as 0.008 µM; in assay [2], 9.8 µM.
On to `CC(C)Cc1ccc(-c2ccccc2S(=O)(=O)Nc2onc3c2CCCC3)cc1`, for which the inhibition constant Ki in assay [1] was 24 µM; in assay [2] it was more than 200 µM.
The like results for `Cc1cccc(-c2ccc(CC(C)C)cc2)c1S(=O)(=O)Nc1onc(C)c1C` were, in that order, 1.3 µM and 19 µM.
In assay [2], `Cc1noc(NS(=O)(=O)c2ccccc2-c2ccc(CC(C)C)cc2C(=O)O)c1C` registered a Ki of 26 µM. This lies in the double-digit micromolar range.
Consider `Cc1noc(NS(=O)(=O)c2ccccc2-c2ccc(C(C)C)cc2)c1C`, for which the Ki in assay [1] turned out to be 0.05 µM; in assay [2], 19 µM.
The like results for `Cc1noc(NS(=O)(=O)c2ccccc2-c2ccc(CC(C)C)cc2CN)c1C` were, in that order, 0.1 µM and 9.6 µM.
As for `Cc1noc(NS(=O)(=O)c2ccccc2-c2ccc(C(=O)O)cc2)c1C`, the Ki in assay [2] was more than 200 µM.
In the case of `Cc1noc(NS(=O)(=O)c2ccccc2-c2cccc(CC(C)C)c2)c1C`, the Ki in assay [1] is 0.19 µM; in assay [2] it was 5.6 µM.
In the same order, the values of `Cc1noc(NS(=O)(=O)c2ccccc2-c2ccc(CC(C)C)cc2N)c1C` are 0.0047 µM and 1.7 µM.
On to `Cc1noc(NS(=O)(=O)c2ccccc2-c2cccc(N)c2)c1C`, for which the Ki in assay [1] is 0.062 µM; in assay [2], more than 200 µM.
The like results for `Cc1noc(NS(=O)(=O)c2ccccc2-c2ccc(CC(C)C)cc2C(N)=O)c1C` were, in that order, 0.1 µM and 12 µM.
`Cc1noc(NS(=O)(=O)c2ccccc2C(C)C)c1C` yielded a Ki in assay [1] of 0.6 µM.
For the compound `Cc1noc(NS(=O)(=O)c2ccccc2-c2ccc(N(C)C)cc2)c1C`, the results for the Ki in assay [1] and in assay [2] were 0.054 µM and 6 µM, respectively.
Compound `Cc1noc(NS(=O)(=O)c2ccccc2Oc2ccccc2)c1C` yielded a Ki in assay [1] of 2.1 µM.
On to `COc1cc(CC(C)C)ccc1-c1ccccc1S(=O)(=O)Nc1onc(C)c1C`, for which the Ki amounted to 0.074 µM in assay [1] and 54 µM in assay [2].
The like results for `Cc1noc(NS(=O)(=O)c2ccccc2-c2ccccc2N)c1C` were, in that order, 0.016 µM and more than 200 µM.
Regarding `COc1cc(OC)nc(NS(=O)(=O)c2ccccc2-c2ccc(CC(C)C)cc2)n1`, the Ki in assay [1] is 3.9 µM; in assay [2] it was 50 µM.
For `Cc1noc(NS(=O)(=O)c2ccc(N)cc2-c2ccc(CC(C)C)cc2)c1C`, the figures for the Ki in assay [1] and in assay [2] were 0.014 µM and 2.1 µM, respectively.
The like results for `Cc1noc(NS(=O)(=O)c2ccccc2-c2ccccc2[N+](=O)[O-])c1C` were, in that order, 0.14 µM and more than 200 µM.
`Cc1noc(NS(=O)(=O)c2ccccc2F)c1C` registered a Ki in assay [1] of 4.7 µM.
On the same count and under the same terms, next, `CC(C)C[C@@H]1NC(=O)[C@@H](C(C)C)NC(=O)[C@@H]2CCCN2C(=O)[C@@H](CC(=O)O)NC(=O)[C@@H](Cc2c[nH]c3ccccc23)NC1=O` [BQ-123] (HELM PEPTIDE1{L.[dW].[dD].P.[dV]}$PEPTIDE1,PEPTIDE1,1:R1-5:R2$$$V2.0): 0.04 µM.
For `Cc1noc(NS(=O)(=O)c2ccccc2-c2ccc(S(=O)(=O)C(C)C)cc2)c1C`, the Ki in assay [1] was 0.11 µM; in assay [2] it was 170 µM.
As to `Cc1noc(NS(=O)(=O)c2ccc(NC(=O)CN)cc2-c2ccc(CC(C)C)cc2)c1C`, the figures for the Ki in assay [1] and in assay [2] were 1.2 µM and 7.4 µM, respectively.
`CCNc1cc(CC(C)C)ccc1-c1ccccc1S(=O)(=O)Nc1onc(C)c1C`: the Ki in assay [1] was found to be 0.0063 µM; in assay [2], 1.4 µM.
`Cc1[n-][o+]c(NS(=O)(=O)c2ccccc2[N+](=O)[O-])c1C` returned a Ki in assay [1] of 3.5 µM. This lies in the single-digit micromolar range.
With `Cc1noc(NS(=O)(=O)c2ccc(NC(=O)c3ccccc3)cc2-c2ccc(CC(C)C)cc2)c1C`, the inhibitory constant (Ki) in assay [1] came out at 5.8 µM; in assay [2], 38 µM.
The like results for `Cc1onc(NS(=O)(=O)c2ccccc2-c2ccc(CC(C)C)cc2)c1C` were, in that order, 0.013 µM and 2 µM.
Take `CCCc1ccc(-c2ccccc2S(=O)(=O)Nc2onc(C)c2C)cc1`: the results for the Ki in assay [1] and in assay [2] were 0.028 µM and 15 µM, respectively.
The like results for `Cc1noc(NS(=O)(=O)c2ccccc2-c2ccc(NC(C)C)cc2)c1C` were, in that order, 0.05 µM and 17 µM.
In the same order, the values of `Cc1noc(NS(=O)(=O)c2ccccc2-c2ccc(SC(C)C)cc2)c1C` are 0.039 µM and 5.7 µM.
On to `Cc1noc(NS(=O)(=O)c2ccccc2-c2ccc(CCC(C)C)cc2)c1C`, for which the Ki in assay [1] turned out to be 0.08 µM; in assay [2], 30 µM.
The like results for `Cc1noc(NS(=O)(=O)c2ccccc2-c2ccc(CC(C)C)cc2NCC(=O)O)c1C` were, in that order, 0.089 µM and 12 µM.
In the same order, the values of `CCCNc1cc(CC(C)C)ccc1-c1ccccc1S(=O)(=O)Nc1onc(C)c1C` are 0.029 µM and 3.7 µM.
For `Cc1noc(NS(=O)(=O)c2ccccc2-c2ccc(CC(C)C)cc2NC(C)C)c1C`, the Ki was determined as 0.034 µM in assay [1] and 2.9 µM in assay [2].
The like results for `Cc1noc(NS(=O)(=O)c2ccccc2-c2ccc(N(C)C(C)C)cc2)c1C` were, in that order, 0.06 µM and 20 µM.
In the same order, the values of `COc1cccc(S(=O)(=O)Nc2onc(C)c2C)c1-c1ccc(CC(C)C)cc1` are 0.016 µM and 2 µM.
Turning to `Cc1noc(NS(=O)(=O)c2ccccc2C(F)(F)F)c1C`, the affinity in assay [1] corresponds to a Ki of 0.7 µM.
Take `CCCCc1ccc(-c2ccccc2S(=O)(=O)Nc2onc(C)c2C)cc1`: the results for the Ki in assay [1] and in assay [2] were 0.037 µM and 1.9 µM, respectively.
In the case of `Cc1ccc(-c2ccccc2S(=O)(=O)Nc2onc(C)c2C)cc1`, the Ki in assay [1] is 0.055 µM; in assay [2], 23 µM.
On to `Cc1noc(NS(=O)(=O)c2ccccc2-c2ccccc2)c1C`, for which the Ki in assay [2] was more than 200 µM.
On to `Cc1noc(NS(=O)(=O)c2ccccc2-c2ccc(OC(C)C)cc2)c1C`, for which the Ki was determined as 0.017 µM in assay [1] and 1.5 µM in assay [2].
In the same order, the values of `Cc1noc(NS(=O)(=O)c2ccccc2-c2ccc(OCC(C)C)cc2)c1C` are 0.032 µM and 2.8 µM.
